This passage reports TGI results from PubChem BioAssay (NCI).

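In this assay, cells in 96-well plates receive the compound at five concentrations for 48 hours. Endpoints are linearly interpolated between the surrounding concentrations. TGI: concentration producing complete growth inhibition.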

Common to all, as to experiment: NCI-60 cell line screen, 48 h
Assay [1] has as its system UACC-257 melanoma.
Assay [2] has as its system CAKI-1 renal.
Assay [3] concerns KM12 colon.
For assay [4], the system named is SW-620 colon.
The subject of assay [5] is OVCAR-4 ovarian.
In assay [6] the test system is HL-60(TB) leukemia.
The subject of assay [7] is HS 578T breast.
For assay [8], the system named is A498 renal.
Assay [9] concerns PC-3 prostate.
Assay [10] has as its system UO-31 renal.
The subject of assay [11] is DU-145 prostate.
For assay [12], the system named is UACC-62 melanoma.
In assay [13] the test system is K-562 leukemia.

For `Brc1c(C#CCC(c2ccccc2)(c2ccccc2)c2ccccc2)ccc(C#CCC(c2ccccc2)(c2ccccc2)c2ccccc2)c1Br`, the TGI in assay [1], in assay [2], in assay [3], in assay [4], in [5] and in assay [6] was above 100 µM each time. In addition, the TGI in assay [7], in assay [8], in assay [9], in assay [10], in assay [11] and in assay [12] was above 100 µM throughout. Moreover, the TGI in [13] was above 100 µM.

`O=C1N2CCc3c([nH]c4ccccc34)C23CC2CCCCC12S3` (centres undefined): the TGI in assay [1] was 73.1 µM; in assay [2], above 100 µM; in [3], above 100 µM; in assay [4], above 100 µM; in [5] it was above 100 µM; in assay [6], above 100 µM. The TGI in assay [7], in assay [8], in assay [9], in [10], in assay [11] and in assay [12] was above 100 µM each time. This compound also registered a TGI in assay [13] above 100 µM.

Consider `O=C(C[n+]1ccccc1)N/N=C(\Cc1nc2ccc([N+](=O)[O-])cc2[nH]c1=O)C(=O)Nc1cc(Cl)c(Cl)cc1Cl`, for which the TGI in assay [1], in assay [2], in [3], in assay [4], in assay [5] and in assay [6] was above 100 µM throughout. Moreover, the TGI in assay [7], in assay [8], in assay [9], in [10], in assay [11] and in [12] was above 100 µM each time. Also, the TGI in assay [13] was above 100 µM.

As to `CC1=CCC2C3(C)CCC2(C(C)C)C1C3` (centres undefined) (tested in a mixture with another compound), the TGI is 99.7 µM in [1]; 40.7 µM in assay [2]; 36.8 µM in assay [3]; 53.7 µM in [4]; above 100 µM in assay [5]; 57.3 µM in [6]. In addition, the TGI was 38.2 µM in assay [7]; 89.4 µM in assay [8]; above 100 µM in assay [9]; 82.3 µM in assay [10]; 68 µM in assay [11]; above 100 µM in assay [12]. This compound displayed a TGI in assay [13] of 99 µM.

Take `Cn1c(-c2cccs2)cc(-c2cccs2)c1-c1ccco1`: the TGI in [1] is above 100 µM; in [2] it was above 38.1 µM; in assay [3], 22.9 µM; in assay [4], above 100 µM; in [5], 5.07 µM; in assay [6] it was above 75.7 µM. Besides, the TGI in [7] is above 91.7 µM; in assay [8] it was above 79.2 µM; in [9], above 100 µM; in assay [10], above 100 µM; in assay [11], above 100 µM; in assay [12], above 100 µM. In assay [13], this compound gave a TGI above 100 µM.

Consider `CCCCc1ccc(Nc2nc(=S)c3[nH]cnc3[nH]2)cc1`, for which the TGI in [1] came to 55.2 µM; in assay [2] it was 92.6 µM; in [3], 25.8 µM; in [4] it was 60.9 µM; in assay [5] it was 76.4 µM; in assay [6], 57.8 µM. The TGI was 49.3 µM in assay [7]; 31.7 µM in assay [8]; above 100 µM in assay [9]; above 100 µM in assay [10]; above 100 µM in [11]; 35.1 µM in [12]. The TGI in assay [13] is above 100 µM.

As for `[N-]=[N+]=Nc1c(C=O)c(=O)n(-c2ccccc2)c2ccccc12`, the TGI in assay [1] is 50.1 µM; in assay [2], 27.7 µM; in assay [3], above 100 µM; in assay [4], 7.53 µM; in assay [5], 37.4 µM; in assay [6], above 100 µM. Also, the TGI in [7] was 79.1 µM; in [8], 10.1 µM; in assay [9], 43.8 µM; in [10], 31.9 µM; in assay [11] it was above 100 µM; in [12], 28.8 µM. The compound further showed a TGI in assay [13] of 21.5 µM.

Regarding `CC1(C)CC23CC(C)(C)c4cccc(c42)OCc2ccc4ccc5ccc(nc5c4n2)COc2cccc1c23`, the TGI in [1], in assay [2], in assay [3], in assay [4], in assay [5] and in [6] was above 50 µM throughout. In addition, the TGI in [7], in assay [8], in assay [9], in [10], in [11] and in assay [12] was above 50 µM in each case. The compound also registered a TGI in assay [13] above 50 µM.
